For series [1], the system named is Leishmania donovani. The series can be described thus: Inhibition of Leishmania donovani HOM/IN/80/DD8 in hamster at 50 mg/kg, ip after 7 days. The class given is functional. Particulars: for inhibition in vivo at 50 mg/kg: HOM/IN/80/DD8, ip, 168 h, route intraperitoneal.
For series [2], the system named is Leishmania donovani. The series can be described thus: Inhibition of Leishmania donovani HOM/IN/80/DD8 in hamster at 50 mg/kg, po after 28 days. The class given is functional. Particulars: HOM/IN/80/DD8, 672 h.
The subject of series [3] is Leishmania donovani. The series can be described thus: Inhibition of Leishmania donovani HOM/IN/80/DD8 in hamster at 50 mg/kg, ip after 28 days. It is filed as functional. The following applies: HOM/IN/80/DD8, ip, 672 h, route intraperitoneal.
In series [4] the test system is Leishmania donovani. The series can be described thus: Inhibition of Leishmania donovani HOM/IN/80/DD8 in hamster at 50 mg/kg, po after 7 days. It is filed as functional. Particulars: HOM/IN/80/DD8, 168 h.
Series [5] concerns Leishmania donovani. The series can be described thus: Inhibition of Leishmania donovani HOM/IN/80/DD8 in hamster at 12.5 mg/kg, po after 28 days. The class given is functional. The following applies: HOM/IN/80/DD8, 672 h.
For series [6], the system named is Leishmania donovani. The series can be described thus: Inhibition of Leishmania donovani HOM/IN/80/DD8 in hamster at 12.5 mg/kg, po after 7 days. The following applies: HOM/IN/80/DD8, 168 h. The class given is functional.
Another series has as its system Hamster. The series can be described thus: Toxicity in hamster at 50 mg/kg. The class given is organism-based. The following applies: cricetinae, in vivo. Set-up: dose 50 mg/kg.

Active and inactive are the calls of the source. The rule behind the calls is not given here.

The term inhibition in vivo denotes the change of the read-out against control, counted positive when it falls. The low end stands for little suppression, the high end for strong suppression.

With `CS/C(=C/C(=O)/C=C/C1=C(C)CCCC1(C)C)Nc1ccccc1`, the result with Leishmania donovani [1] was inactive.

`COc1ccc(N/C(=C\C(=O)/C=C/C2=C(C)CCCC2(C)C)SC)cc1`: testing at 50 mg/kg in the series on Leishmania donovani [1] gave an inhibition in vivo of 52%.

For the compound `CC1=C(/C=C/C(=O)C=C(N2CCOCC2)N2CCOCC2)C(C)(C)CCC1`, the outcome in the series on Leishmania donovani [1] was inactive.

For `CCN(/C(=C\C(=O)/C=C/C1=C(C)CCCC1(C)C)SC)c1ccccc1`, the outcome with Leishmania donovani [1] was inactive.

For the compound `CS/C(=C/C(=O)/C=C/C1=C(C)CCCC1(C)C)Nc1ccc(Cl)cc1`, in the series with Leishmania donovani [1], at 50 mg/kg the inhibition in vivo was 18%.

In turn, `CS/C(=C/C(=O)/C=C/C1=C(C)CCCC1(C)C)Nc1cccc(F)c1` had an inhibition in vivo at 50 mg/kg in the series with Leishmania donovani [1] of 53%.

Consider `CC1=C(/C=C/C(=O)C=C2NCCN2)C(C)(C)CCC1`, for which the inhibition in vivo at 50 mg/kg in the series with Leishmania donovani [2] was 71%; in the series with Leishmania donovani [1] it was 30%; in the series with Leishmania donovani [3], 65%; with Leishmania donovani [4] it was 40%.

On to `CS/C(=C/C(=O)/C=C/C1=C(C)CCCC1(C)C)Nc1ccc(F)cc1`, for which, in the series with Leishmania donovani [1], at 50 mg/kg the inhibition in vivo was 31%.

In the case of `CS/C(=C/C(=O)/C=C/C1=C(C)CCCC1(C)C)NC1CCCCC1`, testing at 50 mg/kg in the series with Leishmania donovani [1] gave an inhibition in vivo of 46%.

Turning to `CCCCCCCCCCCCCCCCOP(=O)([O-])OCC[N+](C)(C)C` [MILTEFOSINE], the inhibition in vivo at 12.5 mg/kg in the series with Leishmania donovani [5] was found to be 69%; in the series on Leishmania donovani [6], 94%.

With `CC1=C(/C=C/C(=O)C=C(N2CCNCC2)N2CCNCC2)C(C)(C)CCC1`, the Activity result with Hamster was “Toxic”.

The values are drawn from ChEMBL document CHEMBL1144578, “Chemotherapy of leishmaniasis Part VI: synthesis and bioevaluation of some novel terpenyl S,N- and N,N-acetals” (Eur J Med Chem, 2007).
